The values below come from article PMC10764104, “Discovery of Molecular Glue Degraders via Isogenic Morphological Profiling” (ACS Chemical Biology, 2023).

The target of the assay is T1, GSPT2 (Homo sapiens, UniProt Q8IYD1+Q96SW2).
T1 construct: endogenous in cells; host or cells: RKO WT or RKO CRBN KO
Briefly: Western blot analysis of GSPT2 degradation in HEK293T cells. The conditions noted are these: 0 to 10 μM, 16 h. The format is cell-based. Here is the method:
Figure 3 FL2-14 is a selective GSPT2 molecular glue degrader. (A) Structure of FL2-14 comprising fluorosulfate scaffold FL2 (black) and tail group modification 14 (blue). (B) DMSO-normalized quantitative proteomics after 16 h of treatment with FL2-14 (10 μM) in RKO WT (n = 2). […] (C) Structural alignment of AlphaFold models of GSPT1 (AF-P15170-F1-model_v4 in gray) and GSPT2 (AF-Q8IYD1-F1-model_v4 in blue). (D) Validation of GSPT2 degradation by FL2-14. […] (E) Dose–response of FL2-14 in RKO and HEK293T cells. Cells were treated with the FL2-14 (0 to 10 μM) for 16 h. (F) Degradation of GSPT2^WT or GSPT2^G566N. […]
spectra were searched against the human proteome (Canonical, reviewed, 20 304 sequences) and appended known contaminants and streptavidin, with a maximum of two allowable miscleavage sites. The search was performed with full tryptic digestion. […] Peptide spectrum matches (PSMs) with precursor isolation interference values of > 70, average TMTpro reporter ion S/N < 10 and SPS Mass Matches < 65 % were excluded from quantification. Both unique and razor peptides were used for TMT quantification. […] Protein ratios are directly calculated from the grouped protein abundances using an ANOVA hypothesis test. Adjusted p‐values are calculated using the Benjamini‐Hochberg method. […]
(A western blot detects proteins with antibodies after separation by electrophoresis.)

T1 sequence (Q8IYD1 whole entry): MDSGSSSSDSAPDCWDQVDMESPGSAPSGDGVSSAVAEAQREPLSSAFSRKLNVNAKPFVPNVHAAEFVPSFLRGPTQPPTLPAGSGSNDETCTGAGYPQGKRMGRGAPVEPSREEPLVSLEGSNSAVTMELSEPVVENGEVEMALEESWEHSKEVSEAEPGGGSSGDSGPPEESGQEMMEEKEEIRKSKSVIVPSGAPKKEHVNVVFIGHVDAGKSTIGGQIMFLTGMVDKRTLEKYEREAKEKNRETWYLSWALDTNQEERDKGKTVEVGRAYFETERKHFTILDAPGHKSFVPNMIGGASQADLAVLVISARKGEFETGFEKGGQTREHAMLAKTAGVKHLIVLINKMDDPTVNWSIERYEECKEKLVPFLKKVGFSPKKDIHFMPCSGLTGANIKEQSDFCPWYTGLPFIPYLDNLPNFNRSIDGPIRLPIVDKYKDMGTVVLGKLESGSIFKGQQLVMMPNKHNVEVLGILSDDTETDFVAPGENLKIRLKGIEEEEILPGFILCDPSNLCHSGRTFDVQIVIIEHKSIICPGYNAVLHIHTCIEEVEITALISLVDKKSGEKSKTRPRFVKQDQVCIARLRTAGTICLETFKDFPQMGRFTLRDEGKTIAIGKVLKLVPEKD
T1 sequence (Q96SW2 whole entry): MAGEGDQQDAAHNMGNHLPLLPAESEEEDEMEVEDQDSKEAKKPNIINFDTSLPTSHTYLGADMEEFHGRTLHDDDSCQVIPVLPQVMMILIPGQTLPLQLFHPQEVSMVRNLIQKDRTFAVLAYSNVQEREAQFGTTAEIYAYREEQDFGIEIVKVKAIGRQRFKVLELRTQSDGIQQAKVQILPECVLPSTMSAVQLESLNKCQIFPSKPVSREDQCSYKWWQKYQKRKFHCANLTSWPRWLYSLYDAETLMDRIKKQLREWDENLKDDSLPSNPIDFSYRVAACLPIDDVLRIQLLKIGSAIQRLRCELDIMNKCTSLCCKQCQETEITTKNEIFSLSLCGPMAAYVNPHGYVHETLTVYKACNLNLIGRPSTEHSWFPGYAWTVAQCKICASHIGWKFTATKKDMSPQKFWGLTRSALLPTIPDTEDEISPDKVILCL
T1 sequence (Q16531 2-1140 partner limits assumed): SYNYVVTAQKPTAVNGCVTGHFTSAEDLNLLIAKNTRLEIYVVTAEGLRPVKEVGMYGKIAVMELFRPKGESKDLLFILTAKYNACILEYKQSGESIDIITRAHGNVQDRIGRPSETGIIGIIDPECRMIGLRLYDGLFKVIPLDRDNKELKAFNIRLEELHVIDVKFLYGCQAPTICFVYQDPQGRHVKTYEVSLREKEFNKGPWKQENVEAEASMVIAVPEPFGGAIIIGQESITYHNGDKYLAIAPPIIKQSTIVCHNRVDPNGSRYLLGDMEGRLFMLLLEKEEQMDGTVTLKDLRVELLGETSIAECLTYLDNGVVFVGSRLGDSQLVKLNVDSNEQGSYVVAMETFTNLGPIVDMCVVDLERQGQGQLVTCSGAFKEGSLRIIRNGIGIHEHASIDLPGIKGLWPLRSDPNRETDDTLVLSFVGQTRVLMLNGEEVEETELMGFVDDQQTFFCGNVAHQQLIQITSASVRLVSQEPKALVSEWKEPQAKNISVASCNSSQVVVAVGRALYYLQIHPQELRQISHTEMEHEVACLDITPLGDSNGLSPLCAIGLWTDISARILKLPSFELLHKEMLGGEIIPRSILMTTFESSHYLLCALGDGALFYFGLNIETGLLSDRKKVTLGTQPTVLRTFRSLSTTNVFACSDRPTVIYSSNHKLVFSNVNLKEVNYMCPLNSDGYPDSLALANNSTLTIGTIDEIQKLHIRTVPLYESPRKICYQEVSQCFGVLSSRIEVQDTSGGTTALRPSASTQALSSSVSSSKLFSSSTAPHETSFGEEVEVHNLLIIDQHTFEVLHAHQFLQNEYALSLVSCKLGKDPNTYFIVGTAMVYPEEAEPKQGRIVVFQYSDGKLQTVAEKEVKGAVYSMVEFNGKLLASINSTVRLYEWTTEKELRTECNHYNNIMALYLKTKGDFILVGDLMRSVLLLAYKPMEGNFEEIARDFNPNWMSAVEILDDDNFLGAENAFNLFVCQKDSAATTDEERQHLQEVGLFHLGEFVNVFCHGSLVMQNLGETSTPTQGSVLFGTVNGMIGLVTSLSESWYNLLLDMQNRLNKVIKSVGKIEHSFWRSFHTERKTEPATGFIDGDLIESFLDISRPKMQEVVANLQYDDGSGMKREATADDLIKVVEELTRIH

Take `CN(Cc1ncc(C2CC2)o1)S(=O)(=O)Oc1ccc(Nc2ccc3c(c2)C(=O)N(C2CCC(=O)NC2=O)C3=O)cc1` (stereo not shown) [FL2-14]: the “GSPT2 degradation in HEK293T cells” value was “could also be observed in HEK293T cells”.
